In US11021457B2, “Class of isoindolone-imide ring-1,3-dione-2-ene compounds, composition and use thereof” (WIGEN BIOMEDICINE TECHNOLOGY (SHANGHAI) CO., LTD., priority 2017, dated 2021):

system: A549; assay: Inhibition of tumor cell proliferation, CellTiter-Glo, A549; format: cell-based; settings: compound concentration 50 μM, 72 hours
How it was run: (§1)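 Activity is graded from survival at 50 μM: + for 60 to under 90%, ++ for over 30 to 60%, +++ for 30% or less. Survival was measured luminescently (CellTiter-Glo) 72 h after dosing, relative to untreated and blank wells; 2000-10000 cells/well, 37° C, 5% CO2.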

| Compound | Inhibitory activity against proliferation (cell survival rate) A549 |
| --- | --- |
| O=C1CCC(N2Cc3c(NC=C4C(=O)CC(c5ccc(C(F)(F)F)cc5)CC4=O)cccc3C2=O)C(=O)N1 (stereo not shown) [Compound 21] | ++ (30<survival rate (%)≤60) |
| O=C1CCC(N2Cc3c(NC=C4C(=O)CC(c5c[nH]c6ccccc56)CC4=O)cccc3C2=O)C(=O)N1 (stereo not shown) [Compound 38] | +++ (survival rate (%)≤30) |
| O=C1CCC(N2Cc3c(NC=C4C(=O)CC(c5cccc6[nH]ncc56)CC4=O)cccc3C2=O)C(=O)N1 (stereo not shown) [Compound 39] | + (60≤survival rate (%)<90) |
| O=C1CCC(N2Cc3c(NC=C4C(=O)CC(c5c[nH]c6cccc(F)c56)CC4=O)cccc3C2=O)C(=O)N1 (stereo not shown) [Compound 41] | +++ (survival rate (%)≤30) |
| O=C1CCC(N2Cc3c(NC(=O)CNC=C4C(=O)CC(c5ccccc5)CC4=O)cccc3C2=O)C(=O)N1 (stereo not shown) [Compound 42] | ++ (30<survival rate (%)≤60) |
| C[C@@H](CC(=O)Nc1cccc2c1CN(C1CCC(=O)NC1=O)C2=O)NC=C1C(=O)CC(c2ccccc2)CC1=O (stereo partly shown) [Compound 44] | +++ (survival rate (%)≤30) |
| O=C1CCC(N2Cc3c(NC(=O)CCNC=C4C(=O)CC(c5ccccc5)CC4=O)cccc3C2=O)C(=O)N1 (stereo not shown) [Compound 45] | + (60≤survival rate (%)<90) |

system: RPMI-8226; assay: Inhibition of tumor cell proliferation, CellTiter-Glo, RPMI-8226; format: cell-based; settings: compound concentration 50 μM, 72 hours
How it was run: as §1

| Compound | Inhibitory activity against proliferation (cell survival rate) RPMI-8226 |
| --- | --- |
| O=C1CCC(N2Cc3c(NC=C4C(=O)CC(c5ccc(C(F)(F)F)cc5)CC4=O)cccc3C2=O)C(=O)N1 (stereo not shown) [Compound 21] | + (60≤survival rate (%)<90) |
| O=C1CCC(N2Cc3c(NC=C4C(=O)CC(c5c[nH]c6ccccc56)CC4=O)cccc3C2=O)C(=O)N1 (stereo not shown) [Compound 38] | +++ (survival rate (%)≤30) |
| O=C1CCC(N2Cc3c(NC=C4C(=O)CC(c5cccc6[nH]ncc56)CC4=O)cccc3C2=O)C(=O)N1 (stereo not shown) [Compound 39] | + (60≤survival rate (%)<90) |
| O=C1CCC(N2Cc3c(NC=C4C(=O)CC(c5c[nH]c6cccc(F)c56)CC4=O)cccc3C2=O)C(=O)N1 (stereo not shown) [Compound 41] | + (60≤survival rate (%)<90) |
| O=C1CCC(N2Cc3c(NC(=O)CNC=C4C(=O)CC(c5ccccc5)CC4=O)cccc3C2=O)C(=O)N1 (stereo not shown) [Compound 42] | ++ (30<survival rate (%)≤60) |
| C[C@@H](CC(=O)Nc1cccc2c1CN(C1CCC(=O)NC1=O)C2=O)NC=C1C(=O)CC(c2ccccc2)CC1=O (stereo partly shown) [Compound 44] | +++ (survival rate (%)≤30) |
| O=C1CCC(N2Cc3c(NC(=O)CCNC=C4C(=O)CC(c5ccccc5)CC4=O)cccc3C2=O)C(=O)N1 (stereo not shown) [Compound 45] | + (60≤survival rate (%)<90) |

molecular target: LC3B (Homo sapiens (Human), UniProt Q9GZQ8); assay: Fluorescence polarization experiment targeting LC3B (GST-LC3B with FITC-labeled peptide); settings: GST-LC3B 180 nM, FITC-labeled peptide 18 nM, 25° C.

| Compound | IC50 [µM] |
| --- | --- |
| O=C1CCC(N2Cc3c(NC=C4C(=O)CC(c5ccc(C(F)(F)F)cc5)CC4=O)cccc3C2=O)C(=O)N1 (stereo not shown) [Compound 21] | < 3 |
| O=C1CCC(N2Cc3c(NC=C4C(=O)CC(c5c[nH]c6ccccc56)CC4=O)cccc3C2=O)C(=O)N1 (stereo not shown) [Compound 38] | < 3 |
| O=C1CCC(N2Cc3c(NC=C4C(=O)CC(c5cccc6[nH]ncc56)CC4=O)cccc3C2=O)C(=O)N1 (stereo not shown) [Compound 39] | < 3 |
| O=C1CCC(N2Cc3c(NC=C4C(=O)CC(c5c[nH]c6cccc(F)c56)CC4=O)cccc3C2=O)C(=O)N1 (stereo not shown) [Compound 41] | < 3 |
| O=C1CCC(N2Cc3c(NC(=O)CNC=C4C(=O)CC(c5ccccc5)CC4=O)cccc3C2=O)C(=O)N1 (stereo not shown) [Compound 42] | 100 to 1000 |
| C[C@@H](CC(=O)Nc1cccc2c1CN(C1CCC(=O)NC1=O)C2=O)NC=C1C(=O)CC(c2ccccc2)CC1=O (stereo partly shown) [Compound 44] | 100 to 1000 |
| O=C1CCC(N2Cc3c(NC(=O)CCNC=C4C(=O)CC(c5ccccc5)CC4=O)cccc3C2=O)C(=O)N1 (stereo not shown) [Compound 45] | 100 to 1000 |

system: SU-DHL6; assay: Inhibition of tumor cell proliferation, CellTiter-Glo, SU-DHL6; format: cell-based; settings: compound concentration 50 μM, 72 hours
How it was run: as §1

| Compound | Inhibitory activity against proliferation (cell survival rate) SU-DHL6 |
| --- | --- |
| O=C1CCC(N2Cc3c(NC=C4C(=O)CC(c5ccc(C(F)(F)F)cc5)CC4=O)cccc3C2=O)C(=O)N1 (stereo not shown) [Compound 21] | + (60≤survival rate (%)<90) |
| O=C1CCC(N2Cc3c(NC=C4C(=O)CC(c5c[nH]c6ccccc56)CC4=O)cccc3C2=O)C(=O)N1 (stereo not shown) [Compound 38] | +++ (survival rate (%)≤30) |
| O=C1CCC(N2Cc3c(NC=C4C(=O)CC(c5cccc6[nH]ncc56)CC4=O)cccc3C2=O)C(=O)N1 (stereo not shown) [Compound 39] | ++ (30<survival rate (%)≤60) |
| O=C1CCC(N2Cc3c(NC=C4C(=O)CC(c5c[nH]c6cccc(F)c56)CC4=O)cccc3C2=O)C(=O)N1 (stereo not shown) [Compound 41] | + (60≤survival rate (%)<90) |
| O=C1CCC(N2Cc3c(NC(=O)CNC=C4C(=O)CC(c5ccccc5)CC4=O)cccc3C2=O)C(=O)N1 (stereo not shown) [Compound 42] | + (60≤survival rate (%)<90) |
| C[C@@H](CC(=O)Nc1cccc2c1CN(C1CCC(=O)NC1=O)C2=O)NC=C1C(=O)CC(c2ccccc2)CC1=O (stereo partly shown) [Compound 44] | +++ (survival rate (%)≤30) |
| O=C1CCC(N2Cc3c(NC(=O)CCNC=C4C(=O)CC(c5ccccc5)CC4=O)cccc3C2=O)C(=O)N1 (stereo not shown) [Compound 45] | + (60≤survival rate (%)<90) |

system: K562; assay: Inhibition of tumor cell proliferation, CellTiter-Glo, K562; format: cell-based; settings: compound concentration 50 μM, 72 hours
How it was run: as §1

| Compound | Inhibitory activity against proliferation (cell survival rate) K562 |
| --- | --- |
| O=C1CCC(N2Cc3c(NC=C4C(=O)CC(c5ccc(C(F)(F)F)cc5)CC4=O)cccc3C2=O)C(=O)N1 (stereo not shown) [Compound 21] | ++ (30<survival rate (%)≤60) |
| O=C1CCC(N2Cc3c(NC=C4C(=O)CC(c5c[nH]c6ccccc56)CC4=O)cccc3C2=O)C(=O)N1 (stereo not shown) [Compound 38] | +++ (survival rate (%)≤30) |
| O=C1CCC(N2Cc3c(NC=C4C(=O)CC(c5cccc6[nH]ncc56)CC4=O)cccc3C2=O)C(=O)N1 (stereo not shown) [Compound 39] | +++ (survival rate (%)≤30) |
| O=C1CCC(N2Cc3c(NC=C4C(=O)CC(c5c[nH]c6cccc(F)c56)CC4=O)cccc3C2=O)C(=O)N1 (stereo not shown) [Compound 41] | +++ (survival rate (%)≤30) |
| O=C1CCC(N2Cc3c(NC(=O)CNC=C4C(=O)CC(c5ccccc5)CC4=O)cccc3C2=O)C(=O)N1 (stereo not shown) [Compound 42] | ++ (30<survival rate (%)≤60) |
| C[C@@H](CC(=O)Nc1cccc2c1CN(C1CCC(=O)NC1=O)C2=O)NC=C1C(=O)CC(c2ccccc2)CC1=O (stereo partly shown) [Compound 44] | +++ (survival rate (%)≤30) |
| O=C1CCC(N2Cc3c(NC(=O)CCNC=C4C(=O)CC(c5ccccc5)CC4=O)cccc3C2=O)C(=O)N1 (stereo not shown) [Compound 45] | + (60≤survival rate (%)<90) |

system: BxPC-3; assay: Inhibition of tumor cell proliferation, CellTiter-Glo, BxPC-3; format: cell-based; settings: compound concentration 50 μM, 72 hours
How it was run: as §1

| Compound | Inhibitory activity against proliferation (cell survival rate) BxPC-3 |
| --- | --- |
| O=C1CCC(N2Cc3c(NC=C4C(=O)CC(c5ccc(C(F)(F)F)cc5)CC4=O)cccc3C2=O)C(=O)N1 (stereo not shown) [Compound 21] | + (60≤survival rate (%)<90) |
| O=C1CCC(N2Cc3c(NC=C4C(=O)CC(c5c[nH]c6ccccc56)CC4=O)cccc3C2=O)C(=O)N1 (stereo not shown) [Compound 38] | ++ (30<survival rate (%)≤60) |
| O=C1CCC(N2Cc3c(NC=C4C(=O)CC(c5cccc6[nH]ncc56)CC4=O)cccc3C2=O)C(=O)N1 (stereo not shown) [Compound 39] | ++ (30<survival rate (%)≤60) |
| O=C1CCC(N2Cc3c(NC=C4C(=O)CC(c5c[nH]c6cccc(F)c56)CC4=O)cccc3C2=O)C(=O)N1 (stereo not shown) [Compound 41] | + (60≤survival rate (%)<90) |
| O=C1CCC(N2Cc3c(NC(=O)CNC=C4C(=O)CC(c5ccccc5)CC4=O)cccc3C2=O)C(=O)N1 (stereo not shown) [Compound 42] | + (60≤survival rate (%)<90) |
| C[C@@H](CC(=O)Nc1cccc2c1CN(C1CCC(=O)NC1=O)C2=O)NC=C1C(=O)CC(c2ccccc2)CC1=O (stereo partly shown) [Compound 44] | + (60≤survival rate (%)<90) |
| O=C1CCC(N2Cc3c(NC(=O)CCNC=C4C(=O)CC(c5ccccc5)CC4=O)cccc3C2=O)C(=O)N1 (stereo not shown) [Compound 45] | + (60≤survival rate (%)<90) |

system: MDA-MB-453; assay: Inhibition of tumor cell proliferation, CellTiter-Glo, MDA-MB-453; format: cell-based; settings: compound concentration 50 μM, 72 hours
How it was run: as §1

| Compound | Inhibitory activity against proliferation (cell survival rate) MDA-MB-453 |
| --- | --- |
| O=C1CCC(N2Cc3c(NC=C4C(=O)CC(c5ccc(C(F)(F)F)cc5)CC4=O)cccc3C2=O)C(=O)N1 (stereo not shown) [Compound 21] | + (60≤survival rate (%)<90) |
| O=C1CCC(N2Cc3c(NC=C4C(=O)CC(c5c[nH]c6ccccc56)CC4=O)cccc3C2=O)C(=O)N1 (stereo not shown) [Compound 38] | +++ (survival rate (%)≤30) |
| O=C1CCC(N2Cc3c(NC=C4C(=O)CC(c5cccc6[nH]ncc56)CC4=O)cccc3C2=O)C(=O)N1 (stereo not shown) [Compound 39] | +++ (survival rate (%)≤30) |
| O=C1CCC(N2Cc3c(NC=C4C(=O)CC(c5c[nH]c6cccc(F)c56)CC4=O)cccc3C2=O)C(=O)N1 (stereo not shown) [Compound 41] | + (60≤survival rate (%)<90) |
| O=C1CCC(N2Cc3c(NC(=O)CNC=C4C(=O)CC(c5ccccc5)CC4=O)cccc3C2=O)C(=O)N1 (stereo not shown) [Compound 42] | + (60≤survival rate (%)<90) |
| C[C@@H](CC(=O)Nc1cccc2c1CN(C1CCC(=O)NC1=O)C2=O)NC=C1C(=O)CC(c2ccccc2)CC1=O (stereo partly shown) [Compound 44] | + (60≤survival rate (%)<90) |
| O=C1CCC(N2Cc3c(NC(=O)CCNC=C4C(=O)CC(c5ccccc5)CC4=O)cccc3C2=O)C(=O)N1 (stereo not shown) [Compound 45] | + (60≤survival rate (%)<90) |
